Measurements from PMC3262104 (Journal of the American Chemical Society, 2011).

How the values were obtained:
[1] = target: T1, P-gp (Homo sapiens, UniProt P08183); test: [125I]IAAP photo-crosslinking competition, crude Sf9 membranes expressing P-gp; assay type: binding
[2] = test system: P-gp; settings: brain; cited from earlier work
[3] = target: T1, P-gp; test: Inhibition of P-gp-mediated efflux of calcein-AM in 12D7-MDR cells; assay type: cell-based
[4] = test system: HIV-1LAI; test: Inhibition of HIV-1 replication, HIV p24 ELISA in infected 12D7 cells; assay type: cell-based; settings: Human immunodeficiency virus 1, read-out: IC50 inhibition of HIV-1 replication

T1 sequence (P08183 whole entry): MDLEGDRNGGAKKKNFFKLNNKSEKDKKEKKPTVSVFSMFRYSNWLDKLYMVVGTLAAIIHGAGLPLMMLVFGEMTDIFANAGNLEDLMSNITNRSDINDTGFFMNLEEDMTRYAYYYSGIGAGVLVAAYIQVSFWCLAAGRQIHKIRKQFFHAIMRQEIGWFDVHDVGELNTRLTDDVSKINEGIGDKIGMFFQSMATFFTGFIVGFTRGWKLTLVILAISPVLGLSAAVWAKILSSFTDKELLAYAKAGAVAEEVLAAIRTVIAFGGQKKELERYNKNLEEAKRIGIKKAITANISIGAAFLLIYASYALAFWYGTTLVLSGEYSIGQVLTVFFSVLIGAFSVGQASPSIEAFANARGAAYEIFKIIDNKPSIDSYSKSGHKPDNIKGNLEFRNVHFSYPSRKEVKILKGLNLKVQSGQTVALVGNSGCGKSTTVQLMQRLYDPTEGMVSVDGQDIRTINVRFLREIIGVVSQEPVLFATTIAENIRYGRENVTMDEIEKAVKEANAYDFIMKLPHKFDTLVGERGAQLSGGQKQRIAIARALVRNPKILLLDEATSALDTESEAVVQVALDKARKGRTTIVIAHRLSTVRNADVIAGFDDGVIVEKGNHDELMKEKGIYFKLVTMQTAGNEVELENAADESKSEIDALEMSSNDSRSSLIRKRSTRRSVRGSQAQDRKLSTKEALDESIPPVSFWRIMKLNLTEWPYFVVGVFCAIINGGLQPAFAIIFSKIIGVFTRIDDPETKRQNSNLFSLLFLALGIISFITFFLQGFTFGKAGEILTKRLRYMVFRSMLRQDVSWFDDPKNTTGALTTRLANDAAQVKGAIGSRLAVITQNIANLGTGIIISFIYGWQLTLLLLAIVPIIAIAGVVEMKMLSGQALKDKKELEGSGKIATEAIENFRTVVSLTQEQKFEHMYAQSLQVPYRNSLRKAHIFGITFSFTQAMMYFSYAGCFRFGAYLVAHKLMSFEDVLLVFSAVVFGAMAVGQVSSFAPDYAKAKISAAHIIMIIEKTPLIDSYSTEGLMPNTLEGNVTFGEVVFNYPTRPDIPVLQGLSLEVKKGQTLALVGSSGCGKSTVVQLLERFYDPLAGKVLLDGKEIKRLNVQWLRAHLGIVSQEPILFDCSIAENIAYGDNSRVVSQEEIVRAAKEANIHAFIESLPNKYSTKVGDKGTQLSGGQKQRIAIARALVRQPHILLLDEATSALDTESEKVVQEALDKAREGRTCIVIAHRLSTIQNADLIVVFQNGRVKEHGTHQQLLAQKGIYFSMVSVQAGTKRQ

In the case of `Nc1nc(NC2CC2)c2ncn([C@H]3C=C[C@@H](CO)C3)c2n1` [abacavir], the IC50 [1] is listed as over 100 µM, the “Increased levels in the brains of dosed P-gp-null mice versus dosed wild-type mice” value [2] is listed as 20 fold and the IC50 [3] is listed as over 500 µM. For the same molecule, the “Inhibition of P-gp mediated efflux of fluorescent substrates” value ([3]; 12D7-MDR cells, at a concentration of 500 µM) was “only minimally effective” and the IC50 [4] was about 0.6 µM.
